# From patent US12344616B2, “Factor XIa inhibitors” (Merck Sharp & Dohme LLC, priority 2018, dated 2025)
# pIC50: −log10 of the molar value. Read-outs that look alike come from different tables or passages of the source.
# Experiments:
# Human plasma kallikrein = Human plasma kallikrein (Homo sapiens (Human), UniProt P03952); assay: Kallikrein assay (plasma kallikrein, pKal); format: biochemical; conditions: purified Human plasma kallikrein 0.5 nM, Acetyl-K-P-R-AFC substrate
# Experimental: The effectiveness of a compound of the present invention as an inhibitor of Kallikrein can be determined using a relevant purified serine protease, and an appropriate synthetic substrate. The rate of hydrolysis of the chromogenic or fluorogenic substrate by the relevant serine protease was measured both in the absence and presence of compounds of the present invention. Assays were conducted at room temperature or at 37° C. […] A decrease in the rate of fluorescence change in the presence of inhibitor is indicative of enzyme inhibition. Such methods are known to one skilled in the art. […] Determinations were made using purified Human plasma kallikrein at a final concentration of 0.5 nM (Enzyme Research Laboratories) and the synthetic substrate, Acetyl-K—P—R-AFC (Sigma #C6608) at a concentration of […].
# Activity assays were performed by diluting a stock solution of substrate at least tenfold to a final concentration ≤0.2 Km into a solution containing enzyme or enzyme equilibrated with inhibitor. Times required to achieve equilibration between enzyme and inhibitor were determined in control experiments. The reactions were performed under linear progress curve conditions and fluorescence increase measured at 405 Ex/510 Em nm. Values were converted to percent inhibition of the control reaction (after subtracting 100% Inhibition value). IC50 was determined by inflection point from a four parameter logistic curve fit. Ki was calculated using the Cheng Prusoff equation, Ki=IC50/(1+([S]/Km)).
# [1] = Rat screening IV/PO pharmacokinetics; format: in vivo; conditions: male, plasma, mean residence time, IV/PO procedure
# Experimental: Plasma pharmacokinetic parameters for clearance, volume of distribution, half-life, mean residence time (MRT) and oral bioavailability (% F)—were determined in rats from oral administration and IV administration studies. 4 male rats, typically weighing 225-260 gram, were fasted overnight prior to dosing. Compounds were prepared for oral and IV dosing by addition to a vehicle, depending on the dose used. For a typical preparation, 1 mg per mL (IV) or 1.5 mg per mL (oral) of test compound was added to vehicle comprised of 20% dimethyl sulfoxide (DMSO), 60% polyethylene glycol 400 (PEG400) and 20% water. IV formulation was administered to 2 rats via pre-cannulated jugular vein, and oral dosing was administered to 2 rats via oral gavage. Blood was collected by pre-cannulated artery, typically at predose, 2 min, 8 min, 15 min, 30 min, and 1, 2, 4, 6, and 8 hr postdose for IV, and at predose, 15 min, 30 min, and 1, 2, 4, 6, 8 hr for oral dosing. Samples were collected in K2EDTA tubes, stored on ice, and centrifuged. Plasma was transferred to a micro titer plate and stored at −70° C. until analysis. Plasma samples were extracted using protein precipitation and analyzed by liquid chromatography separation followed by mass spec detection (LCMS/MS), using a standard curve for each compound. Plasma pharmacokinetic parameters were calculated for IV and oral dosing data by non-compartmental methods. Oral bioavailability was determined as the ratio of the dose-normalized plasma area under the curve (AUC) following oral dosing vs. IV dosing.
# [2] = High-throughput (HT) solubility determination; format: physicochemical; conditions: kinetic from dmso stock
# Experimental: The chromatographic system consists of an Agilent 1290 UPLC/DAD system and ChemStation software, both from Agilent Technologies, USA. The separations are carried out on a Supelco Ascentis Express C18, 30 mm×3.0 mm I.D., 2.7 μm HPLC column. The mobile phase consists of Potassium phosphate buffered at pH 7 (mobile phase A) and acetonitrile (mobile phase B). The column oven temperature is set to 30° C. and the UPLC analysis consists of a gradient. The injection volume is 2 μL and the spectrophotometric detection is set to 215 and 238 nm.
# A 10 mM stock solution of the compound in DMSO is supplied for analysis. 2.5 μL of stock solution (10 mM) was diluted into 247.5 μL of organic co-solvents (10% MeCN/80% MeOH/10% DMSO, v/v/v) to create a standard solution of 100 μM. To create the solubility solutions, 4.1 μL of 10 mM DMSO stock solution was diluted into […] (PBS) (pH 7) solution. A second 4.1 μL aliquot of 10 mM DMSO stock solution was added to 196 μL of PBS (pH 2) solution. A third 4.1 μL aliquot of 10 mM DMSO stock solution was added to 196 μL of FaSSIF (pH 6.5) solution. Each solubility solution was sealed and shaken for 24 hours at 25° C. Filtered the equilibrated solubility solutions by centrifugation using a filter (0.45 μm, polypropylene). Placed 50 μL each of the 100 μM standard solution and the filtered equilibrated solubility solutions into a 384 well plate, and the plate was subsequently heat sealed.
# Analyzed each standard and solubility solution by UPLC/DAD. The solubility value was calculated by the following equation: Solubility=(Peak area of sample/Peak area of standard)(Standard concentration)
# human Factor XIa = human Factor XIa (Homo sapiens (Human), UniProt P03951); assay: Factor XIa assay; format: biochemical; conditions: human Factor XIa 0.04 nM, GPR-AFC substrate, 25° C.; read-out: FXIa IC50
# Experimental: The effectiveness of a compound of the present invention as an inhibitor of Coagulation Factor XIa can be determined using a relevant purified serine protease, and an appropriate synthetic substrate. The rate of hydrolysis of the chromogenic or fluorogenic substrate by the relevant serine protease was measured both in the absence and presence of compounds of the present invention. Assays were conducted at room temperature or at 37° C. […] A decrease in the rate of fluorescence change in the presence of inhibitor is indicative of enzyme inhibition. Such methods are known to one skilled in the art. The results of this assay are expressed as the half-maximal inhibitory concentrations (IC50), or the inhibitory constant, Ki.
# Compounds were pre-incubated for 30 minutes at 25° C. with human (0.04 nM) Factor XIa in 50 mM HEPES buffer with 150 mM sodium chloride, 5 mM calcium chloride, 0.1% PEG 8000, pH 7.4. Factor XIa enzymatic activity was determined by addition of the substrate glycine-proline-arginine-7-amido-4-trifluoromethylcoumarin (GPR-AFC) and measurement of the fluorescence at 400/505 nm after a 60 minute incubation at 25° C. The % inhibition for each data point was calculated from the data and analyzed using the log (inhibitor) vs. response four parameters equation to determine the half-maximal inhibitory concentrations (IC50). The IC50 were, converted to equilibrium inhibitory constants (Ki) using the Cheng-Prusoff equation.
# [3] = FaSSIF pH 6.5, 24 hours at 25° C., read-out: pH 6.5 (FaSSIF) solubility
# [4] = phosphate buffered saline (PBS) pH 2, aqueous buffer, PBS pH 2, 24 hours at 25° C., read-out: pH 2 solubility
# Human plasma kallikrein, sequence (P03952 391-638): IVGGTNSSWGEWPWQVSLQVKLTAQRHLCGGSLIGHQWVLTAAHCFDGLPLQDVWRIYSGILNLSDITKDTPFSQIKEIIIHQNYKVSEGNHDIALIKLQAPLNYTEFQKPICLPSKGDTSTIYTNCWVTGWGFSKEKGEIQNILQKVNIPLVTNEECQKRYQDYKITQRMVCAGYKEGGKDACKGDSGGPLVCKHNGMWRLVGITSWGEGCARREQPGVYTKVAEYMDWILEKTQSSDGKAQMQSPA
# Human plasma kallikrein, sequence (P03952 20-390 partner): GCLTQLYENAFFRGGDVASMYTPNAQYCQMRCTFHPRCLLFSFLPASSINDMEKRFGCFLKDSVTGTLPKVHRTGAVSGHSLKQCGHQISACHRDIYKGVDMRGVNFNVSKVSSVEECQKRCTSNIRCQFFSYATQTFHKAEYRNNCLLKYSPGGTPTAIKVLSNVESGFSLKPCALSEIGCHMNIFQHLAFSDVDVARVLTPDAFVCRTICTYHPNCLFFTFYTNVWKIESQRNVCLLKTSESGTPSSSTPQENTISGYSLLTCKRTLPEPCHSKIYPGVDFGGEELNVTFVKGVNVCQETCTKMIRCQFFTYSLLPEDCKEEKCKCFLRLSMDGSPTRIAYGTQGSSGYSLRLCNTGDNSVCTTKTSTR
# human Factor XIa, sequence (P03951 388-625): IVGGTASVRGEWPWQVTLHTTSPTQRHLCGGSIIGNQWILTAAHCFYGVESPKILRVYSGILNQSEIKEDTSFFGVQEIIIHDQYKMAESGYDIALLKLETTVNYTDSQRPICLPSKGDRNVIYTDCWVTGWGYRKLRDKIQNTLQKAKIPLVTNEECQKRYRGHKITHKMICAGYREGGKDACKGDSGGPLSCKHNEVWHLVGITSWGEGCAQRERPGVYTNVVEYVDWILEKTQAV
# human Factor XIa, sequence (P03951 19-387 partner): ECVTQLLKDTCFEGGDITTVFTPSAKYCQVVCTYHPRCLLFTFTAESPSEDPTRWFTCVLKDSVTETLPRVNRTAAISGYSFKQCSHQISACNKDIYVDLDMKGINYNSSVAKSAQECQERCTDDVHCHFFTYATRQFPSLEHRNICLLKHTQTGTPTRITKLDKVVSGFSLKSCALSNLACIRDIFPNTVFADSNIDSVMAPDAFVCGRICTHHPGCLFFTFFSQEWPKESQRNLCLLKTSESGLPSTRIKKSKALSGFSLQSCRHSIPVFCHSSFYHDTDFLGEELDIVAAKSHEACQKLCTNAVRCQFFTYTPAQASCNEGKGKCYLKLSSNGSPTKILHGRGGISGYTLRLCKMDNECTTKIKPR
Compound,pIC50 (Human plasma kallikrein),MRT [1] [h],"solubility kinetic at 24 h [2, 3] [µM]","solubility kinetic at 24 h [2, 4] [µM]",pIC50 (human Factor XIa)
"COC(=O)Nc1ccc2c(c1)NC(=O)C(C)(C)CCC[C@H](c1ccc(-c3c(-n4cc(C(F)(F)F)cn4)ccc(F)c3F)c[n+]1[O-])c1nc-2c(C)[nH]1 [Example 1, (R,Z)-5-(2,3-difluoro-6-(4-(trifluoromethyl)-1H-pyrazol-1-yl)phenyl)-2-(2^4-((methoxycarbonyl)amino)-1^5,5,5-trimethyl-4-oxo-1^1H-3-aza-1(4,2)-imidazola-2 (1,2)-benzenacyclononaphane-9-yl)pyridine 1-oxide]",6.32,5.8,36,> 200,8.82
"COC(=O)Nc1ccc2c(c1)NC(=O)C(C)(C)CCC[C@H](c1ccc(-c3cc(F)ccc3-n3cc(C(F)(F)F)cn3)c[n+]1[O-])c1nc-2c(C)[nH]1 [Example 2, (R.Z)-5-(5-fluoro-2-(4-(trifluoromethyl)-1H-pyrazol-1-yl)phenyl)-2-(2^4-((methoxycarbonyl)amino)-1^5,5,5-trimethyl-4-oxo-1^1H-3-aza-1(4,2)-imidazola-2(1,2)-benzenacyclononaphane-9-yl)pyridine 1-oxide]",5.97,5.7,53,209,8.54
COC(=O)Nc1ccc2c(c1)NC(=O)C(C)(C)CCC[C@H](c1ccc(-c3cc(Cl)ccc3-n3cc(C(F)(F)F)cn3)c[n+]1[O-])c1nc-2c(C)[nH]1 [Example 3],7.38,11,27,159,9.05
"COC(=O)Nc1ccc2c(c1)NC(=O)C(C)(C)CCC[C@H](c1ccc(-c3cc(Cl)ccc3-n3cc(C(F)F)cn3)c[n+]1[O-])c1nc-2c(C)[nH]1 [Example 4, (R,Z)-5-(5-chloro-2-(4-(difluoromethyl)-1H-pyrazol-1-yl)phenyl)-2-(2^4-((methoxycarbonyl)amino)-1^5,5,5-trimethyl-4-oxo-1^1H-3-aza-1(4,2)-imidazola-2(1,2)-benzenacyclononaphane-9-yl)pyridine 1-oxide]",7.34,2.7,44,166,9.05
"COC(=O)Nc1ccc2c(c1)NC(=O)C(C)(C)CCC[C@H](c1ccc(-c3cc(F)ccc3-c3cnn(C(F)(F)F)c3)c[n+]1[O-])c1nc-2c(C)[nH]1 [Example 5, (R,Z)-5-(5-fluoro-2-(1-(trifluoromethyl)-1H-pyrazol-4-yl)phenyl)-2-(2^4-((methoxycarbonyl)amino)-1^5,5,5-trimethyl-4-oxo-1^1H-3-aza-1(4,2)-imidazola-2(1,2)-benzenacyclononaphane-9-yl)pyridine 1-oxide]",6.43,4.5,50,146,8.70
"COC(=O)Nc1ccc2c(c1)NC(=O)C(C)(C)CCC[C@H](c1ccc(-c3cc(Cl)cnc3OC(F)F)c[n+]1[O-])c1nc-2c(C)[nH]1 [Example 6, (R,Z)-5′-chloro-2′-(difluoromethoxy)-6-(2^4-((methoxycarbonyl)amino)-1^5,5,5-trimethyl-4-oxo-1^1H-3-aza-1(4,2)-imidazola-2(1,2)-benzenacyclononaphane-9-yl)-[3,3′-bipyridine]1-oxide]",6.35,5.6,55,143,8.36
